Assay results taken from US20170157001A1, “Compositions Comprising Strontium and Uses Thereof in the Treatment or Prevention of Gingivitis, Periodontitis, Periodontitis as a Manifestation of Systemic Diseases, and Necrotizing Periodontal Diseases” (priority 2006, published 2017).

Experiments:
[1] = relative to cholecalciferol itself; cited from earlier work
[2] = Determination of solubility velocity by ICP-MS in 0.1 M hydrochloride solution; conditions: in hydrochloride 0.1 M, 37° C., 84Sr signal
Procedure: Determination of solubility velocity by Inductively Coupled Plasma-Mass Spectrometry (ICP-MS)
The solubility is measures as strontium signals over time using ICP-MS. Using this technique it is possible to follow multiple isotopes of the element, here, ^84Sr, ^86Sr, ^87Sr and ^88Sr.
A hydrochloride solution (0.1 M) was added to the sample and the sample then immediately enters, by means of a peristaltic pump, the atomizer of the ICP-MS apparatus. The pump speed was 4.4 ml/min. […] The temperature of the HCl solution was 37° C.
The solubility velocity of the compound is obtained by analysing the slopes of the front curves. The first curve represents the experiment and the second curve the apparatus, thus the difference between the slopes of the two curves are used to calculate the solubility velocity by division with the top value.

SMILES	times more effective in terms of bioavailability than cholecalciferol [1]	solubility velocity [2]
C=C1/C(=C\C=C2/CCC[C@]3(C)[C@@H]([C@H](C)CCCC(C)(C)O)CC[C@@H]23)C[C@@H](O)C[C@@H]1O [1,25 dihydroxycholecalciferol]	ten	–
C=C1CC[C@H](O)C/C1=C/C=C1\CCC[C@]2(C)[C@@H]([C@H](C)CCCC(C)(C)O)CC[C@@H]12 [25-hydroxycholecalciferol]	five	–
[Cl-].[Cl-].[Sr+2] [strontium chloride]	–	very high
